The values that follow come from ChEMBL document CHEMBL5608172, “Structural modification strategies of triazoles in anticancer drug development” (Eur J Med Chem, 2024).

Series [1] concerns CCRF-CEM. Kind of series: Antiproliferative activity against human CCRF-CEM cells. The series is classed as functional, cell-based.
The subject of series [2] is MCF7. Kind of series: Cytotoxicity against human MCF7 cells assessed as cell growth inhibition incubated for 72 hrs by SRB assay. Type of series: functional, cell-based. The following applies: MCF7, 72 h.
The subject of series [3] is SGC-7901. Kind of series: Antiproliferative activity against human SGC-7901 cells. The series is classed as functional, cell-based.
In series [4] the test system is U-937. Kind of series: Antiproliferative activity against human U-937 cells. The series is classed as functional, cell-based.
Series [5] concerns HL-60. Kind of series: Antiproliferative activity against human HL-60 cells. The series is classed as functional, cell-based.
For series [6], the system named is HeLa. Kind of series: Anticancer activity against human HeLa cells assessed as reduction in cell viability by MTT assay. Type of series: functional, cell-based.
The test system of series [7] is A549. Kind of series: Anticancer activity against human A549 cells assessed as reduction in cell viability by MTT assay. Type of series: functional, cell-based.
The subject of series [8] is PC-3. Kind of series: Cytotoxicity against human PC-3 cells assessed as reduction in cell growth incubated for 3 days by MTT assay. The series is classed as functional, cell-based. The conditions noted are these: PC-3, 72 h.
Series [9] deals with MCF7. Kind of series: Cytotoxicity against human MCF7 cells assessed as reduction in cell growth incubated for 24 hrs by MTT assay. Type of series: functional, cell-based. The conditions noted are these: MCF7, 24 h.
In series [10] the test system is SNB-19. Kind of series: Cytotoxicity against human SNB-19 cells assessed as reduction in cell growth incubated for 24 hrs by MTT assay. The series is classed as functional, cell-based. The conditions noted are these: SNB-19, 24 h.
The subject of series [11] is T47D. Kind of series: Cytotoxicity against human T47D cells assessed as reduction in cell growth incubated for 24 hrs by MTT assay. Type of series: functional, cell-based.
The nature of series [12]: Antiproliferative activity against human WS1 cells assessed as reduction in cell viability incubated for 48 hrs by MTT assay. Type of series: toxicity, cell-based.
Series [13] relates to A549. Kind of series: Antiproliferative activity against human A549 cells assessed as reduction in cell viability incubated for 48 hrs by MTT assay. Type of series: toxicity, cell-based. The following applies: A549, 48 h.
Series [14] relates to MCF7. Kind of series: Antiproliferative activity against human MCF7 cells assessed as reduction in cell growth incubated for 24 hrs by MTT assay. The series is classed as functional, cell-based. The conditions noted are these: MCF7, 24 h.
The test system of series [15] is HCT-116. Kind of series: Cytotoxicity against human HCT-116 cells assessed as reduction in cell viability incubated for 24 hrs by MTT assay. The following applies: HCT-116, 24 h. The series is classed as functional, cell-based.
In series [16] the test system is MCF7. Kind of series: Anticancer activity against human MCF7 cells assessed as reduction in cell viability incubated for 48 hrs by MTT assay. The series is classed as functional, cell-based. The conditions noted are these: MCF7, 48 h.
The test system of series [17] is HCT-116. Kind of series: Anticancer activity against human HCT-116 cells assessed as reduction in cell viability incubated for 48 hrs by MTT assay. The series is classed as functional, cell-based. The following applies: HCT-116, 48 h.
The subject of series [18] is HCT-116. Kind of series: Cytotoxicity against human HCT-116 cells assessed as reduction in cell growth incubated for 24 hrs by MTT assay. The series is classed as functional, cell-based. The following applies: HCT-116, 24 h.
Series [19] deals with K562. Kind of series: Antiproliferative activity against human K562 cells assessed as reduction in cell viability incubated for 72 hrs by MTT assay. Type of series: functional, cell-based. The conditions noted are these: K562, 72 h.
Series [20] relates to PC-3. Kind of series: Antiproliferative activity against human PC-3 cells assessed as reduction in cell viability incubated for 72 hrs by MTT assay. Type of series: functional, cell-based. The conditions noted are these: PC-3, 72 h.
Series [21] concerns AGS. Kind of series: Anticancer activity against human AGS cells. Type of series: functional, cell-based.
In series [22] the test system is PC-3. Kind of series: Cytotoxicity against human PC-3 cells assessed as reduction in cell growth incubated for 48 hrs by MTT assay. The series is classed as functional, cell-based. The conditions noted are these: PC-3, 48 h.
For series [23], the system named is A549. Kind of series: Antiproliferative activity against human A549 cells assessed as reduction in cell growth incubated for 72 hrs by MTT assay. The series is classed as functional, cell-based. The following applies: A549, 72 h.
The subject of series [24] is BT-474. Kind of series: Antiproliferative activity against human BT-474 cells assessed as inhibition of cell growth measured after 72 hrs by MTT assay. The series is classed as functional, cell-based. The conditions noted are these: BT-474, 72 h.
Series [25] has as its system HCT-116. Kind of series: Cytotoxicity against human HCT-116 cells assessed as reduction in cell viability measured after 48 hrs by MTT assay. The series is classed as functional, cell-based. The conditions noted are these: HCT-116, 48 h.
Series [26] relates to MCF7. Kind of series: Antiproliferative activity against human MCF7 cells assessed as reduction in cell viability incubated for 24 hrs by SRB assay. Type of series: functional, cell-based. The following applies: MCF7, 24 h.

For `COc1cc(/C=C/C(=O)/C(Cc2cnnn2Cc2ccc(F)cc2)=C(O)/C=C/c2ccc(O)c(OC)c2)ccc1O`, in series [1], half-maximal inhibition (IC50) required 3.31 µM.

Regarding `COc1cc(/C=C/C(=O)CC(=O)/C=C/c2ccc(O)c(OC)c2)ccc1O` [CURCUMIN], the IC50 in series [1] was found to be 10.5 µM.

On to `O=C(O)c1ccc(C(=O)NCn2cc(CSc3nc(-c4ccccc4)c(-c4ccccc4)n3-c3ccccc3)nn2)cc1`, for which, in [2], the IC50 stood at 0.38 µM.

For the compound `CC1(C)CC[C@]23CC[C@]4(C)[C@H](CC[C@@H]5[C@@]6(C)CC[C@H](O)C(C)(C)[C@@H]6CC[C@]54C)[C@H]2[C@H]1OC3` [ALLOBETULIN], the IC50 in [3] stood at 52.2 µM.

`CNc1nc2ccccc2n2c(CCc3ccccc3)cnc12`: the IC50 in series [4] came out at 0.82 µM; in [5], 2.07 µM.

Take `O=Cc1cc(Cc2ccc3oc(C(=O)c4ccc(Cl)cc4)cc3c2)ccc1OCc1cn(-c2ccccc2C(F)(F)F)nn1`: the values for the IC50 in [6] and in series [7] were 0.0291 µM and 0.0404 µM, respectively.

Take `Cc1nn(-c2ccc(S(N)(=O)=O)cc2)c(N)c1-c1nnc(SC/C(=N\O)c2ccccc2)n1-c1ccccc1`: the IC50 in series [8] is 0.33 µM.

For the compound `C=C(C)[C@@H]1CC[C@]2(COC(=O)c3cn(Cc4ccc(F)cc4)nn3)CC[C@]3(C)[C@H](CC[C@@H]4[C@@]5(C)CC[C@H](OC(=O)c6cnnn6Cc6ccc(F)cc6)C(C)(C)[C@@H]5CC[C@]43C)[C@@H]12`, the IC50 in [9] stood at 0.09 µM; in [10], 0.08 µM; in [11], 0.05 µM.

On to `Cc1ccc(-n2ncc(CN3C(=O)C(F)(F)c4cc(Br)ccc43)n2)cc1Nc1nccc(-c2cccnc2)n1`, for which the IC50 at 48 h in [12] was 18.6 µM. Further, the IC50 in [13] was 7.3 µM.

In the case of `COC(=O)c1ccccc1-n1ncc(CSc2nnc(-c3ccccc3)o2)n1`, the IC50 in [14] came out at 1.26 µM.

Take `O=c1oc2ccccc2c2c1cnn2Cc1cn(-c2ccc(Cl)cc2)nn1`: the IC50 in series [15] came to 20.2 µM.

With `CN(C)c1ccc(/C=N/c2nnc(S[C@@H]3O[C@H](CO)[C@H](O)[C@H](O)[C@H]3O)s2)cc1`, the IC50 in series [16] stood at 21.7 µM; in series [17], 14.4 µM.

On to `C=C(C)[C@@H]1CC[C@]2(CO)CC[C@]3(C)[C@H](CC[C@@H]4[C@@]5(C)Cc6nn(C(C)=O)nc6C(C)(C)[C@@H]5CC[C@]43C)[C@@H]12`, for which, in series [18], the IC50 turned out to be 5.67 µM.

Consider `O=C1C(=O)c2cc(Cn3cc(-c4ccccc4)nn3)oc2-c2ccccc21`, for which the IC50 in series [19] turned out to be 1.3 µM; in series [20] it was 1.4 µM.

As to `C=C(C)[C@@H]1CC[C@]2(COC(C)=O)CC[C@]3(C)[C@H](CC[C@@H]4[C@@]5(C)Cc6nn(C(C)=O)nc6C(C)(C)[C@@H]5CC[C@]43C)[C@@H]12`, in series [18], the IC50 was 22.5 µM.

Consider `O=c1cc(-c2ccccc2)c2ccc(OCc3nncn3-c3ccc(Cl)cc3)cc2o1`, for which 2.63 µM corresponded to half-maximal inhibition in [21] (IC50).

Regarding `CC1(C)CC[C@]23CC[C@]4(C)[C@H](CC[C@@H]5[C@@]6(C)Cc7nnn(CCCCC[P+](c8ccccc8)(c8ccccc8)c8ccccc8)c7C(C)(C)[C@@H]6CC[C@]54C)[C@H]2[C@H]1OC3`, 1.05 µM corresponded to half-maximal inhibition in [3] (IC50).

For `NC(=S)N/N=C1/C(=O)N(Cc2cn(CC(=O)c3ccc(Br)cc3)nn2)c2ccccc21`, the IC50 in series [22] came out at 15.3 µM.

As for `COc1ccc2c(-n3cc(-c4cc(OC)c(OC)c(OC)c4)nn3)c(C(=O)Nc3ccccc3)oc2c1`, the IC50 in series [23] turned out to be 0.57 µM.

Take `COc1ccc(Cn2cc(Cn3c(=O)c(-c4nc5ccccc5[nH]4)cc4ccccc43)nn2)c(OC)c1OC`: in series [24], the concentration for half-maximal inhibition (IC50) worked out at 0.59 µM.

With `CC(=O)O[C@@H]1O[C@H](Cn2cc(COc3cccc4cccnc34)nn2)[C@@H](OC(C)=O)[C@H](OC(C)=O)[C@H]1OC(C)=O`, the IC50 in series [25] amounted to 22.3 µM.

For the compound `CC(=O)OC[C@H]1OC(n2cc(COc3cccc4cccnc34)nn2)[C@@H](OC(C)=O)[C@H](OC(C)=O)[C@H]1OC(C)=O` (some centres undefined), the IC50 in [26] was 4.12 µM.
